Results: patent publication US20180311342A1, “IMMUNOSTIMULATING AGENT” (AJINOMOTO CO., INC., priority 2017, published 2018)

Columns and labels:
Assay type in all cases: in vivo, BALB/c mice
[1] = test system: anti-OVA-specific IgG1 and IgG2a subclass antibody production; assay: Evaluation test of adjuvant activity (overall conclusion from anti-OVA IgG1 and IgG2a production); details: compound 0.256 μmol in 5% αCD-added saline with OVA 5 μg, dorsal-subcutaneous
Procedure: 8-Week-old female BALB/c mice were divided into groups (N=6), and each group was primarily immunized by dorsal-subcutaneous administration of (1) ovalbumin (OVA) (5 μg) dissolved in saline as an antigen (OVA single administration group), (2) OVA 5 μg and Addavax™ (mixed with saline at 1:1) dissolved in saline (Addavax™ administration group) as positive control adjuvant, (3) OVA 5 μg and SZ137 0.256 μmol dissolved or dispersed in 5% α-cyclodextrin (hereinafter to be simply referred to as αCD)-added saline (SZ137 administration group), (4) OVA (5 μg) and SZ138 (0.256 μmol) dissolved or dispersed in 5% αCD-added saline (SZ138 administration group), (5) OVA (5 μg) and SZ142 (0.256 μmol) dissolved or dispersed in 5% αCD-added saline (SZ142 administration group), (6) OVA (5 μg) and SZ144 (0.256 μmol) dissolved or dispersed in 5% αCD-added saline (SZ144 administration group), (7) OVA (5 μg) and SZ145 (0.256 μmol) dissolved or dispersed in 5% αCD-added saline (SZ145 administration group), (8) OVA (5 μg) and SZ146 (0.256 μmol) dissolved or dispersed in 5% αCD-added saline (SZ146 administration group), (9) OVA (5 μg) and SZ147 (0.256 μmol) dissolved or dispersed in 5% αCD-added saline (SZ147 administration group), (10) OVA (5 μg) and SZ148 (0.256 μmol) dissolved or dispersed in 5% αCD-added saline (SZ148 administration group), each per mouse. Two week later, the secondary immunization was carried out by dorsal-subcutaneous administration of solutions or dispersions similar to those of the above-mentioned (1)-(10) again. […]
To a 96 well plate was added 5 μg/ml OVA at 100 µl/well, and the mixture was incubated at 4° C. overnight. After incubation, the mixture was washed three times with 200 μl of PBS-T (PBS (phosphate buffered saline)+0.05% (v/v) Tween 20) per well, and blocked with 100 μl of 5% FCS (fetal calf serum)/PBS solution per well at room temperature for 1-2 hr. Thereafter, the mixture was washed three times with PBS-T (200 μl/well), a diluted serum sample (100 l/well) or the same amount of 5% FCS/PBS solution as a control was added, and the mixture was incubated at 37° C. for 1 hr. To calculate concentration of the antibody, the standard of an anti-OVA-specific IgG1 subclass antibody diluted with 2% FCS/PBS solution was added at 100 ng/ml, 50 ng/ml, 25 ng/ml, 12.5 ng/ml, 6.25 ng/ml, 3.125 ng/ml, 1.56 ng/ml, 0.781 ng/ml, 0.391 ng/ml, 0.195 ng/ml, 0.098 ng/ml, 0 ng/ml, per 1 well. When an anti-OVA-specific IgG2a subclass antibody was measured, the standard of an anti-OVA-specific IgG2a subclass antibody was added at 50 ng/ml, 25 ng/ml, 12.5 ng/ml, 6.25 ng/ml, 3.125 ng/ml, 1.56 ng/ml, 0.781 ng/ml, 0.391 ng/ml, 0.195 ng/ml, 0.098 ng/ml, 0.049 ng/ml, 0 ng/ml, per 1 well. Thereafter, similar to the samples, the mixture was washed five times with PBS-T (200 μl/well), a diluted biotinylated anti-mouse IgG1 antibody and IgG2a antibody were added (100 μl/well), and the mixture was incubated at 37° C. for 45 min. Thereafter, the mixture was washed five times with PBS-T (200 μl/well), a diluted anti-biotin-HRP antibody was added (100 μl/well), and the mixture was incubated at 37° C. for another 30 min. Thereafter, the mixture was washed five times with PBS-T (200 μl/well), TMB substrate solution was added (100 μl/well), and the mixture was incubated at room temperature for 10-15 min. Thereafter, a reaction quenching liquid (2N sulfuric acid solution) was added (50 l/well) to discontinue a color developing reaction, and the absorbance (OD Value=450 nm) was measured by a microplate reader. A standard curve was drawn from the measured OD values, and the concentration was calculated. […]

[2] = test system: anti-OVA-specific IgG1 subclass antibody; assay: Adjuvant activity test: anti-OVA-specific IgG1 subclass antibody in serum of OVA-immunized mice (ELISA); details: after primary immunization, serum 2 weeks later; OVA 5 μg + compound 0.256 μmol in 5% αCD-added saline (Addavax mixed with saline at 1:1), dorsal-subcutaneous; compared to OVA single administration group
[3] = test system: anti-OVA-specific IgG2a subclass antibody; assay: Adjuvant activity test: anti-OVA-specific IgG2a subclass antibody in serum of OVA-immunized mice (ELISA); details: after primary immunization, serum 2 weeks later; OVA 5 μg + compound 0.256 μmol in 5% αCD-added saline (Addavax mixed with saline at 1:1), dorsal-subcutaneous; compared to OVA single administration group
[4] = conclusion from IgG1/IgG2a after primary immunization
[5] = conclusion from IgG1/IgG2a after secondary immunization

Structure (SMILES) | adjuvant activity [1, 5] | also measured
CCCCCCCCCCCCCCCCCCNC(=O)N[C@@H](CCCNC(=N)N)C(=O)NCCCCCCCCCCCC.Cl [SZ211, (2S)—N-dodecyl-5-guanidino-2-(octadecylcarbamoylamino)pentanamide hydrochloride] | have an adjuvant activity | adjuvant activity [1, 4]: have an adjuvant activity; anti-OVA-specific IgG1 subclass antibody production [2]: significant enhancement; anti-OVA-specific IgG2a subclass antibody production [3]: significant enhancement
CCCCCCCCCCCCCCCCOC(=O)N[C@@H](CCCNC(=N)N)C(=O)NCCCCCCCC.Cl [SZ215, hexadecyl N-[(1S)-4-guanidino-1-(octylcarbamoyl)butyl]carbamate hydrochloride] | have an adjuvant activity | adjuvant activity [1, 4]: have an adjuvant activity; anti-OVA-specific IgG1 subclass antibody production [2]: a tendency toward increase; anti-OVA-specific IgG2a subclass antibody production [3]: significant enhancement
CCCCCCCCCCCCCCCCOC(=O)N[C@@H](CCCCN)C(=O)NCCCCCCCC.Cl [SZ188, hexadecyl N-[(1S)-5-amino-1-(octylcarbamoyl)pentyl]carbamate hydrochloride] | have an adjuvant activity | adjuvant activity [1, 4]: have an adjuvant activity; anti-OVA-specific IgG1 subclass antibody production [2]: a tendency toward increase was found; anti-OVA-specific IgG2a subclass antibody production [3]: a tendency toward increase was found
CCCCCCCCCCCCCCCC(=O)N[C@@H](CCCCN)C(=O)NCCCCCCCCCCCC.Cl [SZ153, N-[(1S)-5-amino-1-(dodecylcarbamoyl)pentyl]hexadecanamide hydrochloride] | have an adjuvant activity | –
CCCCCCCCCCCCCCCCCCCCCC(=O)N[C@@H](CCCCNC(=N)N)C(=O)NCCCCCCCCCCCC.Cl [SZ166, N-[(1S)-1-(dodecylcarbamoyl)-5-guanidino-pentyl]docosanamide hydrochloride] | have an adjuvant activity | –
CCCCCCCCCCCCCCCCCCCCCC(=O)N[C@@H](C)C(=O)NCCCCCCCCCCCC [SZ145, N-[(1S)-2-(dodecylamino)-1-methyl-2-oxo-ethyl]docosanamide] | have an adjuvant activity | –
CCCCCCCCCCCCCCCCCCCCCC(=O)N[C@@H](CC(C)C)C(=O)NCCCCCCCCCCC [SZ142, N-[(1S)-3-methyl-1-(undecylcarbamoyl)butyl]docosanamide] | have an adjuvant activity | –
CCCCCCCCCCCCCCCCCCCCCC(=O)NCCC(=O)NCCCCCCCCCCCC [SZ147, N-[3-(dodecylamino)-3-oxo-propyl]docosanamide] | have an adjuvant activity | –
CCCCCCCCCCCCCCCCCCCCCC(=O)N[C@@H](CCCC)C(=O)NCCCCCCCCCCCC [SZ155, N-[(1S)-1-(dodecylcarbamoyl)pentyl]docosanamide] | have an adjuvant activity | –
CCCCCCCCCCCCCCCCCCCCCC(=O)N[C@@H](CCCNC(=N)N)C(=O)NCCCCCCCCCCCC.Cl [SZ138, N-[(1S)-1-(dodecylcarbamoyl)-4-guanidino-butyl]docosanamide hydrochloride] | have an adjuvant activity | –
CCCCCCCCCCCCCCCCCCCCCC(=O)N[C@@H](CCCCN)C(=O)NCCCCCCCCCCCC.Cl [SZ160, N-[(1S)-5-amino-1-(dodecylcarbamoyl)pentyl]docosanamide hydrochloride] | have an adjuvant activity | –
CCCCCCCCCCCCCCCCCCCCCC(=O)N[C@@H](CCCNC(=N)N)C(=O)NCCCCCCC.Cl [SZ163, N-[(1S)-4-guanidino-1-(heptylcarbamoyl)butyl]docosanamide hydrochloride] | have an adjuvant activity | –
CCCCCCCCCCCCCCCCCCCCCC(=O)NC(C)(C)C(=O)NCCCCCCCCCCCC [SZ146, N-[2-(dodecylamino)-1,1-dimethyl-2-oxo-ethyl]docosanamide] | have an adjuvant activity | –
CCCCCCCCCCCCCCCCCCCCCC(=O)NCC(C)(C)C(=O)NCCCCCCCCCCCC [SZ148, N-[3-(dodecylamino)-2,2-dimethyl-3-oxo-propyl]docosanamide] | have an adjuvant activity | –
CCCCCCCCCCCCCCCCCCCCCC(=O)N[C@@H](CCCNC(=N)N)C(=O)N(CCCCCCC)CCCCCCC.Cl [SZ159, N-[(1S)-1-(diheptylcarbamoyl)-4-guanidino-butyl]docosanamide hydrochloride] | have an adjuvant activity | –
CCCCCCCCCCCCCCCC(=O)N[C@@H](CC(C)C)C(=O)NCCCCCCCCCCCC [SZ144, N-[(1S)-1-(dodecylcarbamoyl)-3-methyl-butyl]hexadecanamide] | have an adjuvant activity | –
CCCCCCCCCCCCCCCCCCCCCC(=O)N[C@@H](CCCCNC(C)=O)C(=O)NCCCCCCCCCCCC [SZ167, N-[(1S)-5-acetamide-1-(dodecylcarbamoyl)pentyl]docosanamide] | have an adjuvant activity | –
CCCCCCCC/C=C/CCCCCCCC(=O)N[C@@H](CCCNC(=N)N)C(=O)NCCCCCCCCCCCC.Cl [SZ161, (E)-N-[(1S)-1-(dodecylcarbamoyl)-4-guanidino-butyl]octadeca-9-enamide hydrochloride] | have an adjuvant activity | –
CCCCCCCCCCCCCCCCCCCCCC(=O)N[C@@H](CCCN)C(=O)NCCCCCCCCCCCC.Cl [SZ165, N-[(1S)-4-amino-1-(dodecylcarbamoyl)butyl]docosanamide hydrochloride] | have an adjuvant activity | –
CCCCCCCCCCCCCCCCCCCCCC(=O)N1CCC(C(=O)NCCCCCCCCCCCC)CC1 [SZ156, 1-docosanoyl-N-dodecyl-piperidine-4-carboxamide] | have an adjuvant activity | –
CCCCCCCCCCCCCCCCOC(=O)N[C@@H](CCCNC(=N)N)C(=O)NCCCCCC.Cl [SZ169, Hexadecyl N-[(1S)-4-guanidino-1-(hexylcarbamoyl)butyl]carbamate hydrochloride] | have an adjuvant activity | –
CCCCCCCCCCCCCCCCCCCCCC(=O)N[C@@H](CCCCNC(=N)N)C(=O)NCCCCCC.Cl [SZ170, N-[(1S)-5-guanidino-1-(hexylcarbamoyl)pentyl]docosanamide hydrochloride] | have an adjuvant activity | –
CCCCCCCCCCCCCCCCNC(=O)N[C@@H](CCCNC(=N)N)C(=O)NCCCCCC.Cl [SZ168, (2S)-5-guanidino-2-(hexadecylcarbamoylamino)-N-hexyl-pentanamide hydrochloride] | have an adjuvant activity | –
CCCCCCCCCCCCCCCCOC(=O)N[C@@H](CCCNC(=N)N)C(=O)NCCCCCCCCCCCC.Cl [SZ150, Hexadecyl N-[(1S)-1-(dodecylcarbamoyl)-4-guanidino-butyl]carbamate hydrochloride] | have an adjuvant activity | –
